For data set [1], the system named is Mus musculus. Description: Acute toxicity in Swiss-Webster mouse at 1 g/kg, po. The conditions noted are these: in vivo, 1000 mg/kg. It is filed as organism-based.
In data set [2] the test system is Mus musculus. Put plainly: Acute toxicity in Swiss-Webster mouse at 2 g/kg, po. It counts as organism-based. The conditions noted are these: in vivo, 2000 mg/kg.

On to `Oc1ccc([C@H]2Oc3c(c(O)cc4c3[C@H]3c5c(O)cc(O)cc5O[C@@](c5ccc(O)cc5)(O4)[C@@H]3O)[C@H](c3c(O)cc(O)c4c3O[C@H](c3ccc(O)cc3)[C@@H](O)C4)[C@H]2O)cc1` [SELLIGUEAIN A], for which the Activity result in the data set on Mus musculus [1] and in the data set on Mus musculus [2] was “Non-toxic” each time.

The values above are taken from ChEMBL document CHEMBL1147370, “Selligueain A, a novel highly sweet proanthocyanidin from the rhizomes of Selliguea feei” (J Nat Prod, 1993).
